US9856279B2 (AGIOS PHARMACEUTICALS, INC, priority 2011, dated 2018)

Legend:
HT1080 cells = test: Cellular assay for IDH1m inhibitors: inhibition of 2-HG production (LC-MS, 48 hours) in HT1080 cells; format: cell-based; details: Homo sapiens, HT-1080; inhibition of 2-HG production, HT1080 cells; read-out: HT1080 IC50
Outline: (§1)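 Cells were seeded at 5000/well in DMEM with 10% FBS, incubated overnight, then treated with compound (0.2% DMSO final) for 48 h at 37° C. Medium 2-HG was quantified by LC-MS. IC50 is the concentration reducing 2-HG by 50% versus DMSO control, and CellTiter-Glo viability was read at 72 h.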

IDH1 R132H = IDH1 R132H (Homo sapiens, UniProt O75874, R132H); test: Assay for IDH1 R132H inhibitors (NADPH/aKG, resazurin detection); format: biochemical; details: enzyme assay of Example 12; read-out: IDH1R132H IC50
Outline: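 Compound added to substrate mix (8 uM NADPH, 2 mM aKG), then enzyme mix (0.2 μg/ml IDH1 R132H); 50 min RT in 20 mM Tris pH 7.5, 150 mM NaCl, 10 mM MgCl2, 0.03% BSA. Resazurin detection mix (30 μM) 5 min RT; resorufin fluorescence Ex544/Em590.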

U87MG cells = test: Cellular assay for IDH1m inhibitors: inhibition of 2-HG production (LC-MS, 48 hours) in U87MG cells; format: cell-based; details: Homo sapiens, U-87 MG, inhibition of 2-HG production, U87R132H cells; read-out: U87R132H IC50
Outline: as §1

Sequence of IDH1 R132H (O75874 whole entry R132H): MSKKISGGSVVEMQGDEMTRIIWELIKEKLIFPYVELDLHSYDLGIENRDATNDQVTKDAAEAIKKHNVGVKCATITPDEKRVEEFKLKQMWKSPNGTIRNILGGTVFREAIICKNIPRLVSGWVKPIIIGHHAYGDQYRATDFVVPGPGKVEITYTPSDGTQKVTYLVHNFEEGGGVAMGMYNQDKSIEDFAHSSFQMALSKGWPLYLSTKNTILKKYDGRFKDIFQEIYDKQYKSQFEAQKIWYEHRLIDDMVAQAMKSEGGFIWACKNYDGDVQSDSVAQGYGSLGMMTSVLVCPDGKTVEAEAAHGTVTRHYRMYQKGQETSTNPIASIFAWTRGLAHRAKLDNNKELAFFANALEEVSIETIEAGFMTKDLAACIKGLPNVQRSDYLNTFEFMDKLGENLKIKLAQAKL

COCCC(=O)N1CCN(c2nc(C3CC3)c(-c3c(C)noc3C)cc2C#N)C[C@H]1C [Compound 345, (R)-6-cyclopropyl-5-(3,5-dimethyl-isoxazol-4-yl)-2-[4-(3-methoxy-propionyl)-3-methyl-piperazin-1-yl]-nicotinonitrile]
IC50 (HT1080 cells): 1000 to 10000 nM | IC50 (IDH1 R132H): < 500 nM | IC50 (U87MG cells): 500 to 1000 nM

COCCC(=O)N1CCN(c2nc(C3CC3)c(-c3ccc(F)nc3)c(C)c2C#N)C[C@H]1C [Compound 346]
IC50 (HT1080 cells): 1000 to 10000 nM | IC50 (IDH1 R132H): < 500 nM | IC50 (U87MG cells): 500 to 1000 nM

COCCC(=O)N1CCN(c2nc(C3CC3)c(-c3ccc(C#N)cc3)c(C)c2C#N)C[C@H]1C [Compound 347, (R)-5-(4-cyano-phenyl)-6-cyclopropyl-2-[4-(3-methoxy-propionyl)-3-methyl-piperazin-1-yl]-4-methyl-nicotinonitrile]
IC50 (HT1080 cells): < 500 nM | IC50 (IDH1 R132H): < 500 nM | IC50 (U87MG cells): < 500 nM

COCCC(=O)N1CCN(c2nc(C3CC3)c(-c3cccc(NS(C)(=O)=O)c3)c(C)c2C#N)C[C@H]1C [Compound 350, (R)—N-(3-{5-cyano-2-cyclopropyl-6-[4-(3-methoxy-propionyl)-3-methyl-piperazin-1-yl]-4-methyl-pyridin-3-yl}-phenyl)-methane sulfonamide]
IC50 (HT1080 cells): 1000 to 10000 nM | IC50 (IDH1 R132H): < 500 nM | IC50 (U87MG cells): 500 to 1000 nM

COCCC(=O)N1CCN(c2nc(C3CC3)c(-c3c(C)noc3C)c(C)c2C#N)C[C@H]1C [Compound 351, (R)-6-cyclopropyl-5-(3,5-dimethyl-isoxazol-4-yl)-2-[4-(3-methoxy-propionyl)-3-methyl-piperazin-1-yl]-4-methyl-nicotinonitrile]
IC50 (HT1080 cells): 1000 to 10000 nM | IC50 (IDH1 R132H): < 500 nM | IC50 (U87MG cells): 500 to 1000 nM

COCCC(=O)N1CCN(c2nc(C3CC3)c(-c3ccc4scnc4c3)cc2C#N)C[C@H]1C [Compound 352, (R)-5-benzothiazol-5-yl-6-cyclopropyl-2-[4-(3-methoxy-propionyl)-3-methyl-piperazin-1-yl]-nicotinonitrile]
IC50 (HT1080 cells): 1000 to 10000 nM | IC50 (IDH1 R132H): < 500 nM | IC50 (U87MG cells): 500 to 1000 nM

COCCC(=O)N1CCN(c2nc(C3CC3)c(-c3ccc4ncccc4c3)cc2C#N)C[C@H]1C [Compound 353, (R)-6-cyclopropyl-2-[4-(3-methoxy-propionyl)-3-methyl-piperazin-1-yl]-5-quinolin-6-yl-nicotinonitrile]
IC50 (HT1080 cells): 500 to 1000 nM | IC50 (IDH1 R132H): < 500 nM | IC50 (U87MG cells): 500 to 1000 nM

COCCC(=O)N1CCN(c2nc(C3CC3)c(Nc3ccnc4ccccc34)cc2C#N)C[C@H]1C [Compound 356, (R)-6-cyclopropyl-2-(4-(3-methoxypropanoyl)-3-methylpiperazin-1-yl)-5-(quinolin-4-ylamino)nicotinonitrile]
IC50 (HT1080 cells): 1000 to 10000 nM | IC50 (IDH1 R132H): < 500 nM | IC50 (U87MG cells): 1000 to 10000 nM

COCCC(=O)N1CCN(c2nc(C3CC3)c(-c3cc4ccccc4nc3Cl)cc2C#N)C[C@H]1C [Compound 360, (R)-5-(2-chloro-quinolin-3-yl)-6-cyclopropyl-2-[4-(3-methoxy-propionyl)-3-methyl-piperazin-1-yl]-nicotinonitrile]
IC50 (HT1080 cells): 1000 to 10000 nM | IC50 (IDH1 R132H): < 500 nM | IC50 (U87MG cells): 1000 to 10000 nM

COCCC(=O)N1CCN(c2nc(C3CC3)c(-c3ccc4[nH]cnc4c3)cc2C#N)C[C@H]1C [Compound 361, (R)-5-(1H-benzoimidazol-5-yl)-6-cyclopropyl-2-[4-(3-methoxy-propionyl)-3-methyl-piperazin-1-yl]-nicotinonitrile]
IC50 (HT1080 cells): 1000 to 10000 nM | IC50 (IDH1 R132H): < 500 nM | IC50 (U87MG cells): 500 to 1000 nM

COCCC(=O)N1CCN(c2nc(C3CC3)c(-c3cccc(-c4cc[nH]n4)c3)cc2C#N)C[C@H]1C [Compound 363, (R)-6-cyclopropyl-2-[4-(3-methoxy-propionyl)-3-methyl-piperazin-1-yl]-5-[3-(1H-pyrazol-3-yl)-phenyl]-nicotinonitrile]
IC50 (HT1080 cells): 1000 to 10000 nM | IC50 (IDH1 R132H): < 500 nM | IC50 (U87MG cells): 500 to 1000 nM

COCCC(=O)N1CCN(c2nc(C3CC3)c(-c3ccc4ncsc4c3)cc2C#N)C[C@H]1C [Compound 364, (R)-5-benzothiazol-6-yl-6-cyclopropyl-2-[4-(3-methoxy-propionyl)-3-methyl-piperazin-1-yl]-nicotinonitrile]
IC50 (HT1080 cells): 500 to 1000 nM | IC50 (IDH1 R132H): < 500 nM | IC50 (U87MG cells): < 500 nM

COCCC(=O)N1CCN(c2nc(C3CC3)c(-c3cccc4cc[nH]c34)cc2C#N)C[C@H]1C [Compound 373, (R)-6-cyclopropyl-5-(1H-indol-7-yl)-2-[4-(3-methoxy-propionyl)-3-methyl-piperazin-1-yl]-nicotinonitrile]
IC50 (HT1080 cells): 1000 to 10000 nM | IC50 (IDH1 R132H): < 500 nM | IC50 (U87MG cells): 500 to 1000 nM

COCCC(=O)N1CCN(c2nc(C3CC3)c(-c3cnc4[nH]ccc4c3)cc2C#N)C[C@H]1C [Compound 374, (R)-6-cyclopropyl-2-[4-(3-methoxy-propionyl)-3-methyl-piperazin-1-yl]-5-(1H-pyrrolo[2,3-b]pyridin-5-yl)-nicotinonitrile]
IC50 (HT1080 cells): 1000 to 10000 nM | IC50 (IDH1 R132H): < 500 nM | IC50 (U87MG cells): 500 to 1000 nM

CCOC(=O)N1CCN(c2cc(C#N)c(N3CCN(C(=O)CCOC)[C@H](C)C3)nc2C2CC2)CC1 [Compound 376, (R)-ethyl 4-(5-cyano-2-cyclopropyl-6-(4-(3-methoxypropanoyl)-3-methylpiperazin-1-yl)pyridin-3-yl)piperazine-1-carboxylate]
IC50 (HT1080 cells): 1000 to 10000 nM | IC50 (IDH1 R132H): < 500 nM | IC50 (U87MG cells): 500 to 1000 nM

CCS(=O)(=O)N1CCN(c2cc(C#N)c(N3CCN(C(=O)CCOC)[C@H](C)C3)nc2C2CC2)CC1 [Compound 377, (R)-6-cyclopropyl-5-(4-(ethylsulfonyl)piperazin-1-yl)-2-(4-(3-methoxypropanoyl)-3-methylpiperazin-1-yl)nicotinonitrile]
IC50 (HT1080 cells): 500 to 1000 nM | IC50 (IDH1 R132H): < 500 nM | IC50 (U87MG cells): < 500 nM

COCCC(=O)N1CCN(c2nc(C3CC3)c(-c3ccc(NS(C)(=O)=O)cc3)c(C)c2C#N)C[C@H]1C [Compound 380, (R)—N-(4-{5-cyano-2-cyclopropyl-6-[4-(3-methoxy-propionyl)-3-methyl-piperazin-1-yl]-4-methyl-pyridin-3-yl}-phenyl)-methane sulfonamide]
IC50 (HT1080 cells): 500 to 1000 nM | IC50 (IDH1 R132H): < 500 nM | IC50 (U87MG cells): 500 to 1000 nM

C=CC(=O)Nc1cccc(COc2cc(C#N)c(N3CCN(C(=O)CCOC)[C@H](C)C3)nc2C2CC2)c1 [Compound 381, (R)—N-(3-((5-cyano-2-cyclopropyl-6-(4-(3-methoxypropanoyl)-3-methylpiperazin-1-yl)pyridin-3-yloxy)methyl)phenyl)acrylamide]
IC50 (HT1080 cells): < 500 nM | IC50 (IDH1 R132H): < 500 nM | IC50 (U87MG cells): < 500 nM

COCCC(=O)N1CCN(c2nc(C3CC3)c(OCc3cccc(NC(=O)CBr)c3)cc2C#N)C[C@H]1C [Compound 382, (R)-2-bromo-N-(3-((5-cyano-2-cyclopropyl-6-(4-(3-methoxypropanoyl)-3-methylpiperazin-1-yl)pyridin-3-yloxy)methyl)phenyl)acetamide]
IC50 (HT1080 cells): < 500 nM | IC50 (IDH1 R132H): < 500 nM | IC50 (U87MG cells): 500 to 1000 nM

COCCC(=O)N1CCN(c2nc(C3CC3)c(-c3ccc(N)cc3)cc2C#N)C[C@H]1C [Compound 383, (R)-5-(4-aminophenyl)-6-cyclopropyl-2-(4-(3-methoxypropanoyl)-3-methylpiperazin-1-yl)nicotinonitrile]
IC50 (HT1080 cells): 1000 to 10000 nM | IC50 (IDH1 R132H): < 500 nM | IC50 (U87MG cells): 1000 to 10000 nM
